ChEMBL document CHEMBL5233268, “Application of marine natural products in drug research” (Bioorg Med Chem, 2021)
≈ marks a conversion by molar mass, not a printed value.

Key:
KB = test: Cytotoxicity against human KB cells assessed as inhibition of cell growth; format: functional, cell-based
5'-nucleotidase = 5'-nucleotidase (Homo sapiens, UniProt P21589); test: Inhibition of human N-terminal Ecto-5'-nucleotidase
Chain of 5'-nucleotidase (P21589 whole entry): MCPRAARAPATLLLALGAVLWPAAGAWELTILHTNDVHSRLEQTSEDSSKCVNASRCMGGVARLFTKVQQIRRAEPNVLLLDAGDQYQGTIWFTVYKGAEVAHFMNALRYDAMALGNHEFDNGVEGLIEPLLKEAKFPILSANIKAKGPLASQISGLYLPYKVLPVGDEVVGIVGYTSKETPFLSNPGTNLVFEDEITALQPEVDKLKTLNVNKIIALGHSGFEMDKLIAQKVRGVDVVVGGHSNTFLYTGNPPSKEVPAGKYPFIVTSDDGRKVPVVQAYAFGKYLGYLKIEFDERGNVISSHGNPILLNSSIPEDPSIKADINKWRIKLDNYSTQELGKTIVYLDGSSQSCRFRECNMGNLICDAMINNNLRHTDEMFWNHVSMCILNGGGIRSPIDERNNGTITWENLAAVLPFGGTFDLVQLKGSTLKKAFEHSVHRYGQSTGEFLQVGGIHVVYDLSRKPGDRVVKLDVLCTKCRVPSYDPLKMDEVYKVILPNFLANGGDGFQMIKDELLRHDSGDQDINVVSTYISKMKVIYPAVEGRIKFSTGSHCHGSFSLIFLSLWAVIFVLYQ

`COc1ccc(C[C@H]2NC(=O)/C=C/C[C@@H]([C@H](C)[C@H]3O[C@@H]3c3ccccc3)OC(=O)[C@H](CC(C)C)OC(=O)CCNC2=O)cc1` [ARENASTATIN A] showed an IC50 (KB) of 5 pg/mL (≈ 0.00824 nM).

With `Nc1ncc(/C=C/CNC(=O)c2ccc[nH]2)[nH]1` [CLATHRODIN] the IC50 (5'-nucleotidase) was 1600 nM.

`Nc1ncc(/C=C/CNC(=O)c2cc(Br)c(Br)[nH]2)[nH]1` [OROIDIN] was tested, and the IC50 (5'-nucleotidase) was 1600 nM.
